Measurements reported in patent publication US20220187282A1, “CARDIOMYOCYTE PROLIFERATION” (The Council of the Queensland Institute of Medical Research, priority 2019, published 2022).
Where two headings read alike, the source gives them in different places.

Legend:
Type in all cases: biochemical
kinases [1] = molecular target: kinases (Homo sapiens, UniProt P50750)
kinases [2] = molecular target: kinases (Homo sapiens, UniProt P49760); settings: CLK2 FRET-Z-Lyte SP; Test Conc(μM):ATP Conc(μM) 1:25
kinases [3] = molecular target: kinases (Homo sapiens, UniProt P42685); settings: FRK (PTK5) FRET-Z-Lyte SP; Test Conc(μM):ATP Conc(μM) 1:50
kinases [4] = molecular target: kinases (Homo sapiens, UniProt O00444); settings: PLK4 FRET-Lantha SP; Test Conc(μM) 1
kinases [5] = molecular target: kinases (Homo sapiens, UniProt P57059); settings: SIK1 FRET-Lantha SP; Test Conc(μM) 1
kinases [6] = molecular target: kinases (Homo sapiens, UniProt O75582); settings: RPS6KA5 (MSK1) FRET-Z-Lyte SP; ATP Conc(μM):Test Conc(μM) 1:50
kinases [7] = molecular target: kinases (Homo sapiens, UniProt O00238); settings: BMPR1B (ALK6) FRET-Lantha SP; Test Conc(μM) 1
kinases [8] = molecular target: kinases (Homo sapiens, UniProt O43318); settings: MAP3K7/MAP3K7IP1 Lantha SP; Test Conc(μM) 1
kinases [9] = molecular target: kinases (Homo sapiens, UniProt Q13163); settings: MAP2K5 (MEK5) FRET-Lantha SP; Test Conc(μM) 1
kinases [10] = molecular target: kinases (Homo sapiens, UniProt Q9BTU6); settings: PI4K2A *Mn* FRET-Adapta SP; Test Conc(μM):ATP Conc(μM) 1:10
kinases [11] = molecular target: kinases (Homo sapiens, UniProt P48426); settings: PIP4K2A FRET-Adapta SP; Test Conc(μM):ATP Conc(μM) 1:10
kinases [12] = molecular target: kinases (Homo sapiens, UniProt Q9Y2K2); settings: SIK3 FRET-Lantha SP; Test Conc(μM) 1
kinases [13] = molecular target: kinases (Homo sapiens, UniProt Q9Y5S2); settings: CDC42 BPB (MRCKB) Z-Lyte SP; Test Conc(μM):ATP Conc(μM) 1:5
kinases [14] = molecular target: kinases (Homo sapiens, UniProt Q8TF76); settings: GSG2 (Haspin) FRET-Adapta SP; Test Conc(μM):ATP Conc(μM) 1:25
kinases [15] = molecular target: kinases (Homo sapiens, UniProt O00329); settings: PIK3CD/PIK3R1 FRET-Adapta SP; Test Conc(μM):ATP Conc(μM) 1:75
kinases [16] = molecular target: kinases (Homo sapiens, UniProt P29320); settings: EPHA3 FRET-Lantha SP; Test Conc(μM) 1
kinases [17] = molecular target: kinases (Homo sapiens, UniProt Q13470); settings: TNK1 FRET-Z-Lyte SP; Test Conc(μM):ATP Conc(μM) 1:200
kinases [18] = molecular target: kinases (Homo sapiens, UniProt P06239); settings: LCK FRET-Z-Lyte SP; Test Conc(μM):ATP Conc(μM) 1:50
kinases [19] = molecular target: kinases (Homo sapiens, UniProt P06241)
kinases [20] = molecular target: kinases (Homo sapiens, UniProt Q9Y616); settings: IRAK3 FRET-Lantha SP; Test Conc(μM) 1
kinases [21] = molecular target: kinases (Homo sapiens, UniProt Q15746); settings: MYLK (MLCK) FRET-Lantha SP; Test Conc(μM) 1
kinases [22] = molecular target: kinases (Homo sapiens, UniProt P31749); settings: AKT1 (PKB alpha) Z-Lyte SP; Test Conc(μM):ATP Conc(μM) 1:75
kinases [23] = molecular target: kinases (Homo sapiens, UniProt P42679); settings: MATK (HYL) FRET-Z-Lyte SP
kinases [24] = molecular target: kinases (Homo sapiens, UniProt Q9UM73); settings: ALK FRET-Z-Lyte SP; Test Conc(μM):ATP Conc(μM) 1:25
kinases [25] = molecular target: kinases (Homo sapiens, UniProt Q9H792); settings: PEAK1 FRET-Z-Lyte SP; Test Conc(μM):ATP Conc(μM) 1:50
kinases [26] = molecular target: kinases (Homo sapiens, UniProt Q8TD08); settings: MAPK15 (ERK7) FRET-Lantha SP; Test Conc(μM) 1
kinases [27] = molecular target: kinases (Homo sapiens, UniProt Q9H0K1); settings: SNF1LK2 FRET-Z-Lyte SP; Test Conc(μM):ATP Conc(μM) 1:50
kinases [28] = molecular target: kinases (Homo sapiens, UniProt P30530); settings: AXL FRET-Z-Lyte SP; Test Conc(μM):ATP Conc(μM) 1:75
kinases [29] = molecular target: kinases (Homo sapiens, UniProt Q16832); settings: DDR2 Hu Bind FRET-Lantha SP; Test Conc(μM) 1
[30] = CDK9 (Inactive) FRET-Lantha SP, Test Conc(μM) 1
[31] = CDK9/cyclin K FRET-Lantha SP, Test Conc(μM) 1
[32] = CDK9/cyclin T1 FRET-Adapta SP, Test Conc(μM):ATP Conc(μM) 1:25
[33] = FYN A FRET-Lantha SP, Test Conc(μM) 1
[34] = FYN FRET-Z-Lyte SP, Test Conc(μM):ATP Conc(μM) 1:75

Chain of kinases (Homo sapiens, UniProt P06241) (P06241 whole entry): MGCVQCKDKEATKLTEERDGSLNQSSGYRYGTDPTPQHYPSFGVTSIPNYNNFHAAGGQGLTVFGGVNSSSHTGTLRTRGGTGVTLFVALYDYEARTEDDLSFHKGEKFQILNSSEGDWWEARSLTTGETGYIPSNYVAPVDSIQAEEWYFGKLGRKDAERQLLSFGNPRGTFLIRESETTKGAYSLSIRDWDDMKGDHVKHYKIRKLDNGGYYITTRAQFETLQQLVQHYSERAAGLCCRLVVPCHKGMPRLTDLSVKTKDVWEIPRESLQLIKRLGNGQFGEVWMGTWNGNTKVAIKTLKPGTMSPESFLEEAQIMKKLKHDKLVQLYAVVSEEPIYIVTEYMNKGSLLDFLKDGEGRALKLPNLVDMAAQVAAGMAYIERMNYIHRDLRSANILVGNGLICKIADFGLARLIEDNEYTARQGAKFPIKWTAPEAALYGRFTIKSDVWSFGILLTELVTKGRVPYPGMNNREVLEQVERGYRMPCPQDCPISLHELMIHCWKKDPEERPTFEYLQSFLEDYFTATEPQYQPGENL
Chain of kinases (Homo sapiens, UniProt P50750) (P50750 whole entry): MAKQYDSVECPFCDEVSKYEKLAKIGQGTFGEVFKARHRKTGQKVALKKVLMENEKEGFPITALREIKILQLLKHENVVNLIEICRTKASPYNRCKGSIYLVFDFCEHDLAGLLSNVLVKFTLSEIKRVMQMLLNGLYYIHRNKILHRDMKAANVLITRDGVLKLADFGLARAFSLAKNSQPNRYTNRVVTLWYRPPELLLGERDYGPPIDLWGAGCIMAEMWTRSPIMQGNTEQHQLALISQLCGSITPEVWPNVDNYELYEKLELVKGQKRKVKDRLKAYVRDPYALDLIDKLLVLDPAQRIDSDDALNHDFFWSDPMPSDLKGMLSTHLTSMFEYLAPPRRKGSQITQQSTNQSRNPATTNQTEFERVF
Chain of kinases (Homo sapiens, UniProt Q9UM73) (Q9UM73 19-1620): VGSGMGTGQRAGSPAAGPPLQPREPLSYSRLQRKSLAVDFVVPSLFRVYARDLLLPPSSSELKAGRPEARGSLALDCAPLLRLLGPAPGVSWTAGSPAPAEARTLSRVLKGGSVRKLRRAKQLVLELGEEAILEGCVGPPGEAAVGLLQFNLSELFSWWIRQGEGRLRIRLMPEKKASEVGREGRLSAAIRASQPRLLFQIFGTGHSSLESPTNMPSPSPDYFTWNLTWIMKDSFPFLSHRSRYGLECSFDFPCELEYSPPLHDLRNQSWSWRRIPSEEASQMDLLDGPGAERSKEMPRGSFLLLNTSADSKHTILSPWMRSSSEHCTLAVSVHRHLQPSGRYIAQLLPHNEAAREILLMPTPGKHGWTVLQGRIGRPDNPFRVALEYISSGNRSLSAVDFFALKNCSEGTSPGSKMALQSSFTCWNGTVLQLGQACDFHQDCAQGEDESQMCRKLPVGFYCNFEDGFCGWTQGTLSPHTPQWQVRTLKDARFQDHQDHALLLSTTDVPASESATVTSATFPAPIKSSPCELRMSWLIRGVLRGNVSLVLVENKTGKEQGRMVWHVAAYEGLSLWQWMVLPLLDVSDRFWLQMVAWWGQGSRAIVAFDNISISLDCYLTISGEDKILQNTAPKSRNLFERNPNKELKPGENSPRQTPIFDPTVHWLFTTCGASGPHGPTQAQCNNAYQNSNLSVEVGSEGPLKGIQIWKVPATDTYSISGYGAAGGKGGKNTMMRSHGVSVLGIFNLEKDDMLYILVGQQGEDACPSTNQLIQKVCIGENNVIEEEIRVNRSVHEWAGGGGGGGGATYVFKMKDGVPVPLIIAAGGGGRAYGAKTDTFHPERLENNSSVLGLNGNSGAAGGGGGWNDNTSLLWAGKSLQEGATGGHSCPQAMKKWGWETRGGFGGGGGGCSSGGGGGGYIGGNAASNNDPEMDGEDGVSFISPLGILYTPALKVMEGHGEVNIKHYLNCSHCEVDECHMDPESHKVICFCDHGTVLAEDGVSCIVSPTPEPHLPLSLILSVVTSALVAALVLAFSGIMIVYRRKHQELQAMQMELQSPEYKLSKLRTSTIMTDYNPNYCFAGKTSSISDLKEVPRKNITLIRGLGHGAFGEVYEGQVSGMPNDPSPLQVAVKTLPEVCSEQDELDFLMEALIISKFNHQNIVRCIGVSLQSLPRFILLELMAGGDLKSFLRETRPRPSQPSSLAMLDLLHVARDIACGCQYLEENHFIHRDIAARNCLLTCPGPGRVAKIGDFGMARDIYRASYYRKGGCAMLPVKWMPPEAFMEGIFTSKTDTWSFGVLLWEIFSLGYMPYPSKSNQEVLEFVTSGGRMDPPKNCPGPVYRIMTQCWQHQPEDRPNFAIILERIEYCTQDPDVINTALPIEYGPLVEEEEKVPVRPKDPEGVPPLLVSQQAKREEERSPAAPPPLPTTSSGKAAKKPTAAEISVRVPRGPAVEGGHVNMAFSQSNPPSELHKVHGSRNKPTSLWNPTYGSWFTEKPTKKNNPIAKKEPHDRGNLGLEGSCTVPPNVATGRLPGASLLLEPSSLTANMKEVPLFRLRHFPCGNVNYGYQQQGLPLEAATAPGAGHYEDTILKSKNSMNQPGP
Chain of kinases (Homo sapiens, UniProt Q9Y5S2) (Q9Y5S2 whole entry): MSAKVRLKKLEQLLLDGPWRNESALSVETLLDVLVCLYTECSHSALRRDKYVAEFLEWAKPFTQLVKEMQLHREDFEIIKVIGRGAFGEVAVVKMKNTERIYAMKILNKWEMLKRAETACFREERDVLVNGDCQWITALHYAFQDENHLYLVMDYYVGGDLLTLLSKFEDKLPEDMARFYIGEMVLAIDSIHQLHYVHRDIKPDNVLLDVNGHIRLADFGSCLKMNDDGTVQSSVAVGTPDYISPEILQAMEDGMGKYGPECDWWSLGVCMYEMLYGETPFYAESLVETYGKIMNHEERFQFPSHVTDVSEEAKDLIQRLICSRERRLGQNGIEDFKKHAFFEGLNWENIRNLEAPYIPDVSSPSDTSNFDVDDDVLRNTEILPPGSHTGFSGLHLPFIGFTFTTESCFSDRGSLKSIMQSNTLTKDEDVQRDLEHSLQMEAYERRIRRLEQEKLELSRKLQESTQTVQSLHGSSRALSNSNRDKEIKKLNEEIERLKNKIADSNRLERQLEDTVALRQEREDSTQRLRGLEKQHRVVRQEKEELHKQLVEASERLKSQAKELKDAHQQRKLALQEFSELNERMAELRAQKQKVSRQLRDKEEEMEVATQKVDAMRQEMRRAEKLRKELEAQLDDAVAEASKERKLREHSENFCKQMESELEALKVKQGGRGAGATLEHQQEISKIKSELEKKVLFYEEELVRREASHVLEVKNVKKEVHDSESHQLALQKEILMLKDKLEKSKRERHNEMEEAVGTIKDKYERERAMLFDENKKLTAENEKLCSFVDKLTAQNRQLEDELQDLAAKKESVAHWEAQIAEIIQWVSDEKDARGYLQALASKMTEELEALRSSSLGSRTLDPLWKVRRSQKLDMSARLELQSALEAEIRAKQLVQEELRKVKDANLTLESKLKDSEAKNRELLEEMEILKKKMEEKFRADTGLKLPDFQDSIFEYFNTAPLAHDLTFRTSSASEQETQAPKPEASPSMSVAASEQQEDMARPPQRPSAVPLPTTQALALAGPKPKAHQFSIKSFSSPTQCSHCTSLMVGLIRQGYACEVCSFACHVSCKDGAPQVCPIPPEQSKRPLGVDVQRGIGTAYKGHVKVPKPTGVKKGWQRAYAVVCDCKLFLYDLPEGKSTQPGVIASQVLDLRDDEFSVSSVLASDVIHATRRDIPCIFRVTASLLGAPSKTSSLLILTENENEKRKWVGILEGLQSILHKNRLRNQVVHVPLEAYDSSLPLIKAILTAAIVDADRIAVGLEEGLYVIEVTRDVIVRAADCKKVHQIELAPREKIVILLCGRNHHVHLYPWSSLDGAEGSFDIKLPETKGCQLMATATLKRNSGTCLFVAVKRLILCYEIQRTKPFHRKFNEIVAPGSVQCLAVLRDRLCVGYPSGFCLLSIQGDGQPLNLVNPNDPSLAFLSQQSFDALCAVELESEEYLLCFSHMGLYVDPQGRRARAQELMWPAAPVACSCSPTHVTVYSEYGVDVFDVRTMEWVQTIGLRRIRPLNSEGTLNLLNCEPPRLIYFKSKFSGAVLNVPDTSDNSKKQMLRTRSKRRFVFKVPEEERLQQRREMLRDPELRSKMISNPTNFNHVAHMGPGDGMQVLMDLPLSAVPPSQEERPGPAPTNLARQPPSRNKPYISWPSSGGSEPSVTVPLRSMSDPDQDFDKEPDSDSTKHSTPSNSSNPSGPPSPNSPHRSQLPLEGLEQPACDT
Chain of kinases (Homo sapiens, UniProt O00238) (O00238 14-502): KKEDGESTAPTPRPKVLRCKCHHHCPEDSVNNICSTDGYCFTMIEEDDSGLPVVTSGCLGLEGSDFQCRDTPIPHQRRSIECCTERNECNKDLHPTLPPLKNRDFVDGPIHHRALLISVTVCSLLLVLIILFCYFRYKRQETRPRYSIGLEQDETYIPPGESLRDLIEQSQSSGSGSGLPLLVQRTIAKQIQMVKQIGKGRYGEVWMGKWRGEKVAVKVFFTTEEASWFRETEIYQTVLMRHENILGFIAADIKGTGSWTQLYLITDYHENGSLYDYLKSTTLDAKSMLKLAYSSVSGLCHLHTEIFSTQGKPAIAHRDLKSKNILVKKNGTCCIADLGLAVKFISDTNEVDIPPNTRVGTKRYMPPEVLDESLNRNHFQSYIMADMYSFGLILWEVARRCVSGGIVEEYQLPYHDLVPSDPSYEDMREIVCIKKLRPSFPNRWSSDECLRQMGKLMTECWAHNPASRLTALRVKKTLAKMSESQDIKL

| Structure (SMILES) | Mean Inhib (%) (kinases [1]; [30]) | Mean Inhib (%) (kinases [1]; [31]) | Mean Inhib (%) (kinases [1]; [32]) | Mean Inhib (%) (kinases [2]) | Mean Inhib (%) (kinases [3]) | Mean Inhib (%) (kinases [4]) | Mean Inhib (%) (kinases [5]) | Mean Inhib (%) (kinases [6]) | Mean Inhib (%) (kinases [7]) | Mean Inhib (%) (kinases [8]) | Mean Inhib (%) (kinases [9]) | Mean Inhib (%) (kinases [10]) | Mean Inhib (%) (kinases [11]) | Mean Inhib (%) (kinases [12]) | Mean Inhib (%) (kinases [13]) | Mean Inhib (%) (kinases [14]) | Mean Inhib (%) (kinases [15]) | Mean Inhib (%) (kinases [16]) | Mean Inhib (%) (kinases [17]) | Mean Inhib (%) (kinases [18]) | further results |
| --- | --- | --- | --- | --- | --- | --- | --- | --- | --- | --- | --- | --- | --- | --- | --- | --- | --- | --- | --- | --- | --- |
| Cc1cc(Oc2ccnc(Nc3ccc(S(N)(=O)=O)cc3)c2)c(-c2ccccn2)nc1C [compound 65] | 6.9 | 2.6 | 6.2 | 15.7 | 60.1 | 6.1 | 1.8 | 10.0 | 107.0 | 8.1 | 3.4 | −2.9 | −8.6 | −4.7 | −5.0 | −1.9 | 23.8 | 27.9 | −4.5 | 39.7 | Mean Inhib (%) (kinases [19]; [33]): 27.5%; Mean Inhib (%) (kinases [19]; [34]): 43.1%; Mean Inhib (%) (kinases [20]): 5.4%; Mean Inhib (%) (kinases [21]): −0.5%; Mean Inhib (%) (kinases [22]): −1.3%; Mean Inhib (%) (kinases [23]; Test Conc(μM):ATP Conc(μM) 0.25): 1.8%; Mean Inhib (%) (kinases [24]): 4.2%; Mean Inhib (%) (kinases [25]): 55.2%; Mean Inhib (%) (kinases [26]): 1.5%; Mean Inhib (%) (kinases [27]): 10.7%; Mean Inhib (%) (kinases [28]): 1.1%; Mean Inhib (%) (kinases [29]): 1.6% |
| Cc1ccc(NC(=O)c2ccnc(N3CCOCC3)c2)cc1Nc1ccnc(N2CC(C)OC(C)C2)n1 (stereo not shown) [compound 3] | 6.2 | −1.9 | 17.2 | 3.7 | 5.7 | 0.2 | −0.5 | 1.6 | 11.9 | 3.6 | −1.6 | −2.4 | 2.2 | 5.6 | −7.0 | −5.6 | 1.0 | 4.8 | −8.8 | −4.1 | Mean Inhib (%) (kinases [19]; [33]): 4.8%; Mean Inhib (%) (kinases [19]; [34]): 5.1%; Mean Inhib (%) (kinases [20]): 14.4%; Mean Inhib (%) (kinases [21]): 2.2%; Mean Inhib (%) (kinases [22]): 5.2%; Mean Inhib (%) (kinases [23]; Test Conc(μM):ATP Conc(μM) 1:300): 3.2%; Mean Inhib (%) (kinases [24]): 11.9%; Mean Inhib (%) (kinases [25]): 0.8%; Mean Inhib (%) (kinases [26]): 0.8%; Mean Inhib (%) (kinases [27]): 15.9%; Mean Inhib (%) (kinases [28]): −2.7%; Mean Inhib (%) (kinases [29]): 65.5% |
